According to patent publication US20200223889A1, “Bicyclic Compounds Capable of Binding to Melanocortin 4 Receptor” (Novo Nordisk A/S, priority 2017, published 2020):
pEC50, pKi: −log10 of the molar value. Positions of bridges follow the written chain, without caps; N, C: chain ends. Non-standard residues stand in square brackets, D forms with d. Residues, ends and D or L forms follow the SMILES beside them. Phe(4-CN) = N#Cc1ccc(C[C@H](N)C(=O)O)cc1; 1Nal = N[C@@H](Cc1cccc2ccccc12)C(=O)O; 2Nal = N[C@@H](Cc1ccc2ccccc2c1)C(=O)O; Cit = NC(=O)NCCC[C@H](N)C(=O)O; Aze = O=C(O)[C@@H]1CCN1

Legend:
human MC4R [1] = molecular target: T1, human MC4R (Homo sapiens, UniProt P32245); experiment: Functional cAMP assay (CisBio HTRF) in BHK cells expressing human MC4R; assay type: cell-based; conditions: for pEC50: BHK cells expressing human MC4R, '>' = highest dose used with no response, read-out: MC4R cAMP EC50; for MC1R/MC4R cAMP EC50 ratio: MC1R cAMP EC50 divided by MC4R cAMP EC50
T1 construct: expressed in transfected cells
T1 sequence (P32245 whole entry): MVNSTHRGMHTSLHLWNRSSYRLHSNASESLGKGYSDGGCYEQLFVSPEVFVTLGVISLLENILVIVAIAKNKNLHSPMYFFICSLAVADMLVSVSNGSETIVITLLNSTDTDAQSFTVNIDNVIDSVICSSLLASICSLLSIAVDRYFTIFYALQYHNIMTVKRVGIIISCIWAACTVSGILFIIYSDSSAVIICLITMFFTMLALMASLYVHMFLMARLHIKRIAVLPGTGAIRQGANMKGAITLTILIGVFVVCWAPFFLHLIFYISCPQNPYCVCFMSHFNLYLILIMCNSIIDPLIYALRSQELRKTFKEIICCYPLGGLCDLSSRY
Procedure, shortened: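 Compound working solutions, 10-fold dilutions from 2 μM at twice final strength, in buffer containing 1 mM IBMX, were incubated 30 min at 25 °C with BHK cells stably carrying human MC4R or MC1R. Accumulated cAMP was then detected by competitive HTRF after 1 h at 25 °C and fitted by non-linear regression.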

human MC4R [2] = molecular target: T1, human MC4R; experiment: 125NDP-α-MSH competitive binding to membranes of BHK cells expressing human MC4 receptor (filtration assay); conditions: human MC4R, BHK cell membranes, 125NDP-α-MSH radioligand; read-out: MC4R binding Ki
Method: In Vitro ^125NDP-α-MSH Binding to Recombinant BHK Cells Expressing Human MC4 Receptor (Filtration Assay)
In order to assess the binding affinity of the selected compounds for the human MC4R competitive binding assays was performed with radiolabeled NDP-alpha MSH (^125NDP-α-MSH).
The assay was performed in 96-well filterplates (Unifilter) using BHK cells stably expressing the human MC4 receptor.
The BHK cell membranes were prepared from frozen or fresh cells that were homogenized in 20 mM HEPES pH 7.1, 5 mM MgCl2, 1 mg/ml bacitracin (buffer 1) and centrifuged at 15000 rpm at 4° C., 10 min in a Sorvall RC 5B plus, SS-34 rotor. The supernatant was discarded, and the pellets were re-suspended in buffer 1, homogenized and centrifuged two more times. The final pellets were re-suspended in buffer 1 and the protein concentration was measured and adjusted with buffer 1 to 5 mg/ml and the membrane preparation was kept at −80° C. until assay. The assay was run on a dilution of this cell membrane suspension without any further preparation. The suspension was diluted to give maximally 10% specific binding, i.e. to approx. 50-100 fold dilution, optimized after each membrane preparation. The assay was performed in a total volume of 200 μl: 50 μl of cell suspension, 50 μl of ^125NDP-α-MSH (apx. […] in final concentration), 50 μl of test compound and 50 μl binding buffer were mixed and incubated for 2 h at 25° C. (binding buffer: 25 mM HEPES, pH 7.0, 1 mM CaCl2), 1 mM MgSO4, 1 mM EGTA, 0.005% Tween™ 20 and 0.1% HSA or, alternatively, 0.1% ovalbumin (Sigma; catalogue No. A-5503)). Test compounds were dissolved in 100% DMSO and diluted in binding buffer in a dose range from 1 μM to 0.001 nM. Radiolabelled ligand and membranes were diluted in binding buffer. The incubation was stopped by dilution with 8×100 μl ice-cold 0.9% NaCl. The radioactivity retained on the filters was counted using a Packard Topcounter. The data were analysed by non-linear regression analysis of binding curves, using the Windows™ program GraphPad™ Prism (GraphPad Software, USA).

Row | SMILES | pEC50 (human MC4R [1]) | MC1R/MC4R cAMP EC50 ratio (human MC4R [1]) | pKi (human MC4R [2])
1 | C[C@@H]1NC(=O)[C@@H]2CSSC[C@H](NC(=O)[C@H](CCCNC(=N)N)NC(=O)[C@H](CCCCN)NC(=O)[C@H](CCCCN)NC(=O)[C@H](CCCCN)NC1=O)C(=O)N1CCC[C@H]1C(=O)N[C@@H](Cc1c[nH]cn1)C(=O)N[C@H](Cc1ccccc1)C(=O)N[C@@H](Cc1c[nH]cn1)C(=O)N[C@@H](Cc1c[nH]c3ccccc13)C(=O)N2 [Chem. 71, c[c[Cys-Pro-His-D-Phe-His-Trp-Cys]- Ala-Lys-Lys-Lys-Arg]] (cyclo(AKKKRCPH[dF]HWC); disulfide 6-12) | 10.10 | 415 | 10.30
2 | C[C@@H]1NC(=O)[C@@H]2CSSC[C@H](NC(=O)[C@H](CCCNC(=N)N)NC(=O)[C@H](CCCCN)NC(=O)[C@H](CCCCN)NC(=O)[C@H](CCCCN)NC1=O)C(=O)N1CCC[C@H]1C(=O)N[C@@H](Cc1c[nH]cn1)C(=O)N[C@H](Cc1ccccc1)C(=O)N[C@@H](CCCNC(N)=O)C(=O)N[C@@H](Cc1c[nH]c3ccccc13)C(=O)N2 [Chem. 72, c[c[Cys-Pro-His-D-Phe-Cit-Trp-Cys]- Ala-Lys-Lys-Lys-Arg]] (cyclo(AKKKRCPH[dF][Cit]WC); disulfide 6-12) | 10.52 | 195 | 10.52
3 | NCCCC[C@@H]1NC(=O)[C@H](CCCCN)NC(=O)[C@@H]2CSSC[C@H](NC(=O)[C@H](Cc3c[nH]c4ccccc34)NC(=O)[C@H](CCCCN)NC(=O)[C@H](CCCCN)NC1=O)C(=O)N1CCC[C@H]1C(=O)N[C@@H](Cc1c[nH]cn1)C(=O)N[C@H](Cc1ccccc1)C(=O)N[C@@H](Cc1c[nH]cn1)C(=O)N[C@@H](Cc1c[nH]c3ccccc13)C(=O)N2 [Chem. 75, c[c[Cys-Pro-His-D-Phe-His-Trp-Cys]- Lys-Lys-Lys-Lys-Trp]] (cyclo(CKKKKWCPH[dF]HW); disulfide 1-7) | 9.36 | 155 | 9.96
4 | C[C@@H]1NC(=O)[C@@H]2CSSC[C@H](NC(=O)[C@H](Cc3c[nH]c4ccccc34)NC(=O)[C@H](CCCCN)NC(=O)[C@H](CCCCN)NC(=O)[C@H](CCCCN)NC1=O)C(=O)N[C@@H](CCCCN)C(=O)N[C@@H](Cc1c[nH]cn1)C(=O)N[C@H](Cc1ccccc1)C(=O)N[C@@H](Cc1c[nH]cn1)C(=O)N[C@@H](Cc1c[nH]c3ccccc13)C(=O)N2 [Chem. 76, c[c[Cys-Lys-His-D-Phe-His-Trp-Cys]- Ala-Lys-Lys-Lys-Trp]] (cyclo(AKKKWCKH[dF]HWC); disulfide 6-12) | 9.80 | 136 | 10.05
5 | NCCCC[C@@H]1NC(=O)[C@H](CCCCN)NC(=O)[C@H](CCCCN)NC(=O)[C@@H]2CSSC[C@H](NC(=O)[C@H](Cc3c[nH]c4ccccc34)NC(=O)[C@H](CCCCN)NC1=O)C(=O)N[C@@H](CCCCN)C(=O)N[C@@H](Cc1c[nH]cn1)C(=O)N[C@H](Cc1ccccc1)C(=O)N[C@@H](Cc1c[nH]cn1)C(=O)N[C@@H](Cc1c[nH]c3ccccc13)C(=O)N2 [Chem. 77, c[c[Cys-Lys-His-D-Phe-His-Trp-Cys]- Lys-Lys-Lys-Lys-Trp]] (cyclo(CKH[dF]HWCKKKKW); disulfide 1-7) |  | 108 | 9.14
6 | C[C@@H]1NC(=O)[C@@H]2CSSC[C@H](NC(=O)[C@H](Cc3ccc4ccccc4c3)NC(=O)[C@H](CCCNC(=N)N)NC(=O)[C@@H](Cc3ccccc3)NC(=O)[C@H](Cc3c[nH]cn3)NC1=O)C(=O)N[C@@H](C)C(=O)N[C@@H](CCCCN)C(=O)N[C@@H](CCCCN)C(=O)N[C@@H](CCCCN)C(=O)N[C@@H](Cc1c[nH]c3ccccc13)C(=O)N2 [Chem. 79, c[c[Cys-Ala-His-D-Phe-Arg-2-Nal- Cys]-Ala-Lys-Lys-Lys-Trp]] (cyclo([2Nal]CAKKKWCAH[dF]R); disulfide 2-8) | 10.70 | 58 | 10.52
7 | C[C@@H]1NC(=O)[C@@H]2CSSC[C@H](NC(=O)[C@H](Cc3c[nH]c4ccccc34)NC(=O)[C@H](CCCCN)NC(=O)[C@H](CCCCN)NC(=O)[C@H](CCCCN)NC1=O)C(=O)N1CC[C@H]1C(=O)N[C@@H](Cc1c[nH]cn1)C(=O)N[C@H](Cc1ccccc1)C(=O)N[C@@H](Cc1c[nH]cn1)C(=O)N[C@@H](Cc1c[nH]c3ccccc13)C(=O)N2 [Chem. 82, c[c[Cys-AZE-His-D-Phe-His-Trp-Cys]- Ala-Lys-Lys-Lys-Trp]] (cyclo(AKKKWC[Aze]H[dF]HWC); disulfide 6-12) |  | 178 | 10.15

The remaining molecules from weak to strong by pKi (human MC4R [2]), led by results:

Row | pEC50 (human MC4R [1]) | MC1R/MC4R cAMP EC50 ratio (human MC4R [1]) | pKi (human MC4R [2]) | SMILES
8 | 9.38 | 26 | 9.33 | C[C@@H]1NC(=O)[C@@H]2CSSC[C@H](NC(=O)[C@H](Cc3ccc(C#N)cc3)NC(=O)[C@H](CCCNC(=N)N)NC(=O)[C@@H](Cc3ccccc3)NC(=O)[C@H](Cc3c[nH]cn3)NC1=O)C(=O)N[C@@H](C)C(=O)N[C@@H](CCCCN)C(=O)N[C@@H](CCCCN)C(=O)N[C@@H](CCCCN)C(=O)N[C@@H](Cc1c[nH]c3ccccc13)C(=O)N2 [Chem. 65, c[c[Cys-Ala-His-D-Phe-Arg-4-CN- Phe-Cys]-Ala-Lys-Lys-Lys-Trp]] (cyclo(AH[dF]R[Phe(4-CN)]CAKKKWC); disulfide 6-12)
9 | 9.23 | 74 | 9.72 | C[C@@H]1NC(=O)[C@@H]2CSSC[C@H](NC(=O)[C@H](Cc3c[nH]c4ccccc34)NC(=O)[C@H](CCCCN)NC(=O)[C@H](CCCCN)NC(=O)[C@H](CCCCN)NC1=O)C(=O)N[C@H](CCCCN)C(=O)N[C@@H](Cc1c[nH]cn1)C(=O)N[C@H](Cc1ccccc1)C(=O)N[C@@H](Cc1c[nH]cn1)C(=O)N[C@@H](Cc1c[nH]c3ccccc13)C(=O)N2 [Chem. 84, c[c[Cys-D-Lys-His-D-Phe-His-Trp- Cys]-Ala-Lys-Lys-Lys-Trp]] (cyclo(AKKKWC[dK]H[dF]HWC); disulfide 6-12)
10 | 10.52 | 141 | 10.05 | C[C@@H]1NC(=O)[C@@H]2CSSC[C@H](NC(=O)[C@H](Cc3cccc4ccccc34)NC(=O)[C@H](CCCNC(=N)N)NC(=O)[C@@H](Cc3ccccc3)NC(=O)[C@H](Cc3c[nH]cn3)NC1=O)C(=O)N[C@@H](C)C(=O)N[C@@H](CCCCN)C(=O)N[C@@H](CCCCN)C(=O)N[C@@H](CCCCN)C(=O)N[C@@H](Cc1c[nH]c3ccccc13)C(=O)N2 [Chem. 64, c[c[Cys-Ala-His-D-Phe-Arg-1-Nal- Cys]-Ala-Lys-Lys-Lys-Trp]] (cyclo([1Nal]CAKKKWCAH[dF]R); disulfide 2-8)
11 | 10.40 | 95 | 10.70 | C[C@@H]1NC(=O)[C@@H]2CSSC[C@H](NC(=O)[C@H](CCCNC(=N)N)NC(=O)[C@H](CCCCN)NC(=O)[C@H](CCCCN)NC(=O)[C@H](CCCCN)NC1=O)C(=O)N[C@@H](CCCCN)C(=O)N[C@@H](Cc1c[nH]cn1)C(=O)N[C@H](Cc1ccccc1)C(=O)N[C@@H](Cc1c[nH]cn1)C(=O)N[C@@H](Cc1c[nH]c3ccccc13)C(=O)N2 [Chem. 78, c[c[Cys-Lys-His-D-Phe-His-Trp-Cys]- Ala-Lys-Lys-Lys-Arg]] (cyclo(AKKKRCKH[dF]HWC); disulfide 6-12)
